Patent EP2301627A1, “Novel antimalarial 3-azabicyclo[3.2.2]nonane derivatives” (University of Graz, priority 2009, dated 2011)
Where “and” joins values, the source holds several entries; their conditions need not be identical. Equal values may be shown once. Read-outs that look alike come from different tables or passages of the source.

Tests used:
L-6 cells = test: Cytotoxicity, same Alamar Blue assay with L-6 cells; format: cell-based; conditions: Rattus norvegicus
Description: Serial drug dilutions are added to the wells. Then 50 µl of trypanosome suspension (T. b. rhodesiense STIB 900) is added to each well and the plate incubated at 37°C under a 5% CO2 atmosphere for 72 hours. Alamar Blue (10 µl) is then added to each well and incubation continued for a further 2-4 hours. […] Fluorescence development is expressed as percentage of the control, and IC50 values determined. Cytotoxicity is assessed using the same assay and L-6 cells.

[1] = tested on: K1 strain of P. falciparum (resistant to chloroquine and pyrimethamine); test: in vitro screening against Plasmodium falciparum, [3H]-hypoxanthine incorporation assay; format: cell-based; conditions: read-out: IC50 P.falc.
Description: Antiplasmodial activity is determined using the K1 strain of P. falciparum (resistant to chloroquine and pyrimethamine). A modification of the [^3H]-hypoxanthine incorporation assay is used [Matile H, Pink JRL. in: Lefkovits I. and Pernis B. (Eds.). Immunological Methods, Academic Press, San Diego, 1990, 221-234.]. Briefly, infected human red blood cells in RPMI 1640 medium with 5% Albumax are exposed to serial drug dilutions in microtiter plates for 48 hours. Viability is assessed by measuring the incorporation of [^3H]-hypoxanthine by liquid scintillation counting 24 hours after the addition of the radiolabel. The counts are expressed as percentage of the control cultures, sigmoidal inhibition curves are drawn and IC50 values calculated.

P. berghei ANKA strain = test: in vivo screening against Plasmodium berghei in mice; conditions: for MSD P. berghei: mean survival day; for Activity %: percent reduction of parasitemia vs control
Description: • Method of infection of animals: • Male mice (Fü albino; specific pathogen free) weighing 20± 2g are infected intravenously with 2x10^7 P. berghei ANKA strain-infected erythrocytes from donor mice on day 0 of the experiment. […] Parasitemia is determined microscopically by counting 1000 red blood cells. • For low parasitemias (<1%) 2000 rbc's have to be counted. The difference between the mean value for the control group (taken as 100%) and that for each experimental group is calculated and expressed as percent reduction (=activity). • The mean survival day (MSD, in days) is recorded as well as observations concerning side effects of the drug.

[2] = tested on: T. b. rhodesiense STIB 900; test: in vitro screening against Trypanosoma brucei rhodesiense, Alamar Blue assay; format: cell-based; conditions: read-out: IC50 T.rho.
Description: Minimum Essential Medium (50 µl) supplemented according to Baltz et al. [Baltz T, Baltz D, Giroud C, Crockett J. EMBO J., 1985, 4: 1273-1277] with 2-mercaptoethanol and 15% heat-inactivated horse serum is added to each well of a 96-well microtiter plate. Serial drug dilutions are added to the wells. Then 50 µl of trypanosome suspension (T. b. rhodesiense STIB 900) is added to each well and the plate incubated at 37°C under a 5% CO2 atmosphere for 72 hours. Alamar Blue (10 µl) is then added to each well and incubation continued for a further 2-4 hours. The plate is then read with a Millipore Cytofluor 2300 using an excitation wavelength of 530 nm and emission wavelength of 590 nm [Räz B, Iten M, Grether-Bühler Y, Kaminsky R, Brun R. Acta Trop., 1997, 68: 139-147]. Fluorescence development is expressed as percentage of the control, and IC50 values determined. Cytotoxicity is assessed using the same assay and L-6 cells.

[3] = L6, L-6 cells, read-out: IC50 Cytox
[4] = Erythrocyte, K1 strain, infected human red blood cells, 48 hours drug exposure

SMILES: CCN(CC)CCCC(C)Nc1ccnc2cc(Cl)ccc12 (stereo not shown) [Chloroquine, reference compound]
- IC50 (L-6 cells; L6, read-out: IC50 Cytox): 188 µM
- IC50 ([1]; K1, Erythrocyte, 48 h): 0.12 µM
- MSD P. berghei (P. berghei ANKA strain; ip 4x10mg/kg): 20 days
- Activity % (P. berghei ANKA strain; ip 4x10mg/kg): 99.6%
- MSD P. berghei (P. berghei ANKA strain; po 4x10mg/kg): 20 days
- Activity % (P. berghei ANKA strain; po 4x10mg/kg): 99.6%

SMILES: c1ccc([C@@H]2CC3(N4CCCC4)CNCC2[C@H](c2ccccc2)C3)cc1 (racemic) [Example 1, (6RS,9RS)-(±)-6,9-Diphenyl-1-pyrrolidino-3-azabicyclo[3.2.2]nonane]
- IC50 (L-6 cells; [3]): 72.9 µM
- IC50 ([2]; STIB 900, 72 hours incubation): 1 µM
- IC50 [1, 4]: 0.095 µM
- MSD P. berghei (P. berghei ANKA strain; ip 4x10mg/kg): 4 days
- Activity % (P. berghei ANKA strain; ip 4x10mg/kg): 25.06%
- MSD P. berghei (P. berghei ANKA strain; ip 4x20mg/kg): 10 days
- Activity % (P. berghei ANKA strain; ip 4x20mg/kg): 60.11%
- MSD P. berghei (P. berghei ANKA strain; ip 4x50mg/kg): 12.3 days and 15 days
- Activity % (P. berghei ANKA strain; ip 4x50mg/kg): 94.32% and 94.77%
- MSD P. berghei (P. berghei ANKA strain; po 1x100mg/kg): 12 days
- Activity % (P. berghei ANKA strain; po 1x100mg/kg): 70.52%
- side effects of the drug (P. berghei ANKA strain; po 1x200mg/kg): toxic
- MSD P. berghei (P. berghei ANKA strain; po 1x200mg/kg): 16 days
- Activity % (P. berghei ANKA strain; po 1x200mg/kg): 66.13%
- MSD P. berghei (P. berghei ANKA strain; po 4x100mg/kg): 18.6 days
- Activity % (P. berghei ANKA strain; po 4x100mg/kg): 97.7%

SMILES: Nc1nc(N)nc(Nc2ccc([As]3SCC(CO)S3)cc2)n1 (stereo not shown) [Melarsoprol]
- IC50 (L-6 cells; L6, read-out: IC50 Cytox): 7.78 µM
- IC50 ([2]; 72 h): 0.0039 µM

SMILES: C[C@@H]1CC[C@H]2[C@@H](C)C(=O)O[C@@H]3O[C@@]4(C)CC[C@@H]1[C@]32OO4 [Artemisinin]
- IC50 (L-6 cells; [3]): 450 µM
- IC50 [1, 4]: 0.0064 µM

SMILES: N=C(N)c1ccc(OCCCCCOc2ccc(C(=N)N)cc2)cc1 [Pentamidine]
- IC50 (L-6 cells; [3]): 4720 µM
- IC50 ([2]; STIB 900, 72 hours incubation): 0.0075 µM
